Source: patent US20100317647A1 (priority 2009, published 2010)

Biological target: human Cat S (Homo sapiens, UniProt P25774)
Experiment: Cathepsin enzyme inhibition assay (fluorogenic peptide substrate cleavage)
Assay type: biochemical
Settings: human Cat S 1 nM; substrate Z-Val-Val-Arg-AMC 20 μM; pH 6.5; fluorescence over 20 minutes
Outline: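 IC50 values derived from fluorescence increase (ex 360 nm, em 465 nm) monitored for 20 minutes after substrate addition. Enzyme held at 1 nM with 20 μM Z-Val-Val-Arg-AMC, in pH 6.5 potassium phosphate buffer containing DTT, EDTA and Triton X-100.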

Sequence of human Cat S (P25774 115-331): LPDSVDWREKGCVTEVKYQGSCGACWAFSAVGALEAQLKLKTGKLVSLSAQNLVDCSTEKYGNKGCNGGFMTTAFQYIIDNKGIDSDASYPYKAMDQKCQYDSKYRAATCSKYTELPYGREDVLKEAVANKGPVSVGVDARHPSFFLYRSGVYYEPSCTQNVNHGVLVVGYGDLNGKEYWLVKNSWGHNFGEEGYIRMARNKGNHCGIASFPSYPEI

Compound | IC50 [nM]
N#CC1(NC(=O)[C@@H]2C[C@@H](S(=O)(=O)c3ccccc3)C[C@H]2C(=O)N2[C@@H]3CC[C@H]2COC3)CC1 [Example 18, (1R,2R,4R)-4-Benzenesulfonyl-2-((1R,5S)-3-oxa-8-aza-bicyclo[3.2.1]octane-8-carbonyl)-cyclopentanecarboxylic acid (1-cyano-cyclopropyl)-amide] | 2
CC1CCN(C(=O)[C@@H]2C[C@H](S(=O)(=O)c3ccccc3)C[C@H]2C(=O)NC2(C#N)CC2)CC1 [Example 19, (1R,2R,4R)-4-Benzenesulfonyl-2-(4-methyl-piperidine-1-carbonyl)-cyclopentanecarboxylic acid (1-cyano-cyclopropyl)-amide] | 0.5
N#CC1(NC(=O)[C@@H]2C[C@@H](S(=O)(=O)c3ccccc3)C[C@H]2C(=O)N2CCS(=O)(=O)CC2)CC1 [Example 20, (1R,2R,4R)-4-Benzenesulfonyl-2-(1,1-dioxo-1-thiomorpholine-4-carbonyl)-cyclopentanecarboxylic acid (1-cyano-cyclopropyl)-amide] | 4.3
CCOC1CN(C(=O)[C@@H]2C[C@H](S(=O)(=O)c3ccccc3)C[C@H]2C(=O)NC2(C#N)CC2)C1 [Example 21, (1R,2R,4R)-4-Benzenesulfonyl-2-(3-ethoxy-azetidine-1-carbonyl)-cyclopentanecarboxylic acid (1-cyano-cyclopropyl)-amide] | 4.9
COC1CN(C(=O)[C@@H]2C[C@H](S(=O)(=O)c3ccccc3)C[C@H]2C(=O)NC2(C#N)CC2)C1 [Example 22, (1R,2R,4R)-4-Benzenesulfonyl-2-(3-methoxy-azetidine-1-carbonyl)-cyclopentanecarboxylic acid (1-cyano-cyclopropyl)-amide] | 5.5
N#CC1(NC(=O)[C@@H]2C[C@@H](S(=O)(=O)c3ccccc3)C[C@H]2C(=O)N2CCCC2)CC1 [Example 23, (1R,2R,4R)-4-Benzenesulfonyl-2-(pyrrolidine-1-carbonyl)-cyclopentanecarboxylic acid (1-cyano-cyclopropyl)-amide] | 1.5

Second part, the molecule after the results:

IC50 [nM] | Compound
9.6 | N#CC1(NC(=O)[C@@H]2C[C@@H](S(=O)(=O)c3ccccc3)C[C@H]2C(=O)N2CCC2)CC1 [Example 24, (1R,2R,4R)-2-(Azetidine-1-carbonyl)-4-benzenesulfonyl-cyclopentanecarboxylic acid (1-cyan o-cyclopropyl)-amide]
2.6 | CCN(CC)C(=O)[C@@H]1C[C@H](S(=O)(=O)c2ccccc2)C[C@H]1C(=O)NC1(C#N)CC1 [Example 25, (1R,2R,4R)-4-Benzenesulfonyl-cyclopentane-1,2-dicarboxylic acid 1-[(1-cyano-cyclopropyl)-amide]2-diethylamide]
1.5 | CN1CCN(C(=O)[C@@H]2C[C@H](S(=O)(=O)c3ccccc3)C[C@H]2C(=O)NC2(C#N)CC2)CC1 [Example 26, (1R,2R,4R)-4-Benzenesulfonyl-2-(4-methyl-piperazine-1-carbonyl)-cyclopentanecarboxylic acid (1-cyano-cyclopropyl)-amide]
6.2 | CN(C)C(=O)[C@@H]1C[C@H](S(=O)(=O)c2ccccc2)C[C@H]1C(=O)NC1(C#N)CC1 [Example 27, (1R,2R,4R)-4-Benzenesulfonyl-cyclopentane-1,2-dicarboxylic acid 1-[(1-cyano-cyclopropyl)-amide]2-dimethylamide]
25.5 | CC(C)(C)NC(=O)[C@@H]1C[C@H](S(=O)(=O)c2ccccc2)C[C@H]1C(=O)NC1(C#N)CC1 [Example 28, (1R,2R,4S)-4-Benzenesulfonyl-cyclopentane-1,2-dicarboxylic acid 1-tert-butylamide 2-[(1-cyano-cyclopropyl)-amide]]
72.5 | CNC(=O)[C@@H]1C[C@H](S(=O)(=O)c2ccccc2)C[C@H]1C(=O)NC1(C#N)CC1 [Example 29, (1R,2R,4S)-4-Benzenesulfonyl-cyclopentane-1,2-dicarboxylic acid 1-[(1-cyano-cyclopropyl)-amide]2-methylamide]
